Where “and” joins values, the source holds several entries; their conditions need not be identical. Equal entries are not always repeated.
System: wild type C57BL/6 and GLP-1R-/- mice
Test: Mouse glucose tolerance test (IPGTT, wild type and GLP-1R-/- mice)
Type: in vivo
Parameters: Blood Glucose Net AUC: unit not given here
Details: for Blood Glucose / Plasma Insulin: 30 mpk, 30 mg/kg; for Blood Glucose Net AUC: @ 30, individual animals
Experimental: Wild type C57BL/6 mice and GLP-1R^-/- mice were fed a high fat diet (D12492i, Research Diets) for 6 weeks prior to GTT. On the day of study, mice were fasted at 1 h post lights on, and body weights were measured. […] Mice were then dosed PO at a volume of 10 ml/kg with vehicle (0.5% methylcellulose), MK-2305 (a GPR40 partial agonist described in Hauge et al) at 10 mg/kg, or AP1 at 30 mg/kg. Dosages of MK-2305 and AP1 were administered at maximal efficacious doses as determined by acute dose titrations with efficacy determined via reduction in glucose during an IPGTT (data not shown). […] Blood glucose was measured again (time = 0) just prior to an intraperitoneal (IP) dextrose challenge of 1 g/kg at 10 ml/kg dose volume (Dextrose, Hospira Inc., Lake Forrest IL). A subset of vehicle treated mice was injected with 0.9% NaCl saline to serve as negative control. Blood glucose was then measured at 10, 20, 40, 60, and 120 min after challenge. To capture insulin secretion during the IPGTT, blood via tail vein was collected at t = - 60, 0, 10, 20, 40, 60 min post challenge.
Net AUC was calculated by subtracting the average AUC of the saline group from each groups’ total AUC.
Blood for insulin, glucagon, GLP-1, GIP, and PYY measurements was collected into K2EDTA Microtainer tubes (BD, Franklin Lakes, NJ) pre-treated with DPP4 inhibitor (Millipore, Billerica, MA) and cOmplete™ Protease Inhibitor Cocktail Tablets (Roche Diagnostics, Indianapolis, IN). Tubes were centrifuged for 10 minutes at 5000 RPM, and plasma was aliquotted for analysis. Plasma insulin levels were measured via EIA (Mesoscale Discovery ELISA Kit, Gaithersburg MD). Rat plasma total GLP-1 was measured using Total GLP-1 (ver.2) Assay Kit (Cat#: K150JVC). The measurement of active GLP-1 was carried out in a similar manner as that described for total GLP-1 assay with the exception that MSD Active GLP-1 (ver. 2) assay kit (Cat# K150JWC) was used. Rat plasma glucagon was measured using an in-house glucagon assay developed as a MSD format sandwich immunoassay (Merck & Co., Inc., MRL, Kenilworth, NJ USA). The antibody specificity was cross validated via mass- spec using procedures described in Lee et al. Briefly, MSD Streptavidin Gold plates were coated with 2 μg/ml biotin mouse monoclonal antibody generated to glucagon. Test samples were added to the plates and a separate Sulfo- tagged monoclonal antibody was used to detect the captured glucagon protein (2 μg/ml). The ELISA was carried out in the standard reagents in the MSD format. The plate was read on the SECTOR Imager 6000 Reader. Metabolic hormones GIP (Gastric Inhibitory Polypeptide) and PYY (Peptide YY) were measured in rat plasma using the Rat Metabolic Magnetic Bead Panel (EMD Millipore, Billerica, MA). The assay was performed according to manufacturer protocol.

[1] = GLP-1R-/- and wild type mice, MK-2305 10 mg/kg, AP1 30 mg/kg PO
[2] = KO mice, Time 0, individual animals
[3] = KO mice, Time 10, individual animals
[4] = KO mice, Time 20, individual animals
[5] = KO mice, Time 40, individual animals
[6] = KO mice, Time 60, individual animals
[7] = KO mice, Time -60, individual animals
[8] = WT mice, Time 0, individual animals
[9] = WT mice, Time 10, individual animals
[10] = WT mice, Time 20, individual animals
[11] = WT mice, Time 60, individual animals
[12] = WT mice, Time -60, individual animals

With `COc1ccc(F)c(-c2ccc([C@@H]3CCc4ccc([C@H](C5CC5)[C@H](C)C(=O)O)cc4O3)cc2)c1` [AP1] the “blood glucose excursion during IPGTT” value [1] was “reduced”, the “insulin following dextrose challenge (IPGTT)” value [1] was “increased insulin following the dextrose challenge in both knockout and wild type mice” and the “Blood Glucose” value [2] was 84 mg/dL and 106 mg/dL and 108 mg/dL and 102 mg/dL and 90 mg/dL and 97 mg/dL and 104 mg/dL. The “Plasma Insulin” value [2] was 1.042 ng/ml and 1.305 ng/ml and 1.695* ng/ml and 1.425 ng/ml and 1.092 ng/ml and 1.099 ng/ml and 1.131 ng/ml, the “Blood Glucose” value [3] was 140 mg/dl and 143 mg/dl (2×) and 241 mg/dl and 103 mg/dl and 112 mg/dl and 152 mg/dl and the “Plasma Insulin” value [3] was 1.818 ng/ml and 1.304 ng/ml and 8.134* ng/ml and 2.799 ng/ml and 1.233 ng/ml and 2.777 ng/ml and 1.836 ng/ml. The “Blood Glucose” value [4] was 79 mg/dL and 107 mg/dL and 145 mg/dL and 126 mg/dL and 76 mg/dL and 80 mg/dL and 104 mg/dL, the “Plasma Insulin” value [4] was 1.06 ng/ml and 0.804 ng/ml and 3.066* ng/ml and 1.963 ng/ml and 0.693 ng/ml and 1.694 ng/ml and 1.832 ng/ml and the “Blood Glucose” value [5] was 58 mg/dL and 108 mg/dL. For the same compound, the “Plasma Insulin” value [5] was 0.728 ng/ml and 0.449 ng/ml and 1.028* ng/ml and 0.546 ng/ml and 0.513 ng/ml and 0.552 ng/ml and 0.628 ng/ml, the “Blood Glucose” value [6] was 75 mg/dL and 116 mg/dL and 106 mg/dL and 69 mg/dL and 92 mg/dL and 78 mg/dL and 110 mg/dL and the “Plasma Insulin” value [6] was 0.445 ng/ml and 0.264 ng/ml and 0.373* ng/ml and 0.39 ng/ml and 0.327 ng/ml and 0.218 ng/ml and 0.377 ng/ml. The “Blood Glucose” value (KO mice, Time 120, individual animals) was 66 mg/dL and 102 mg/dL and 86 mg/dL and 103 mg/dL and 77 mg/dL and 71 mg/dL and 121 mg/dL, the “Blood Glucose” value [7] was 190 mg/dl and 206 mg/dl (2×) and 172 mg/dl and 181 mg/dl and 204 mg/dl and 230 mg/dl and the “Plasma Insulin” value [7] was 0.47 ng/ml and 0.396 ng/ml and 1.185* ng/ml and 0.53 ng/ml and 0.25 ng/ml and 0.347 ng/ml and 0.673 ng/ml. The “Blood Glucose” value (KO mice, Time -90, individual animals) was 196 mg/dL and 173 mg/dL and 164 mg/dL and 153 mg/dL and 203 mg/dL and 170 mg/dL and 187 mg/dL, the “Blood Glucose Net AUC” value (KO mice) was -16949 and -21574 and -17294 and -16394 and -19399 and -20469 and -21384 and the “Blood Glucose” value [8] was 89 mg/dl and 78 mg/dl and 112 mg/dl and 100 mg/dl and 85 mg/dl (2×) and 93 mg/dl. For the same compound, the “Plasma Insulin” value [8] was 3.656 ng/ml and 8.79 ng/ml and 40.989* ng/ml and 1.246 ng/ml and 3.561 ng/ml and 1.813 ng/ml and 4.832 ng/ml, the “Blood Glucose” value [9] was 166 mg/dL and 152 mg/dL and 163 mg/dL and 220 mg/dL and 195 mg/dL and 184 mg/dL and 168 mg/dL and the “Plasma Insulin” value [9] was 14.251 ng/ml and 18.912 ng/ml and 38.822* ng/ml and 7.869 ng/ml and 14.176 ng/ml and 5.575 ng/ml and 12.785 ng/ml. The “Blood Glucose” value [10] was 91 mg/dL and 101 mg/dL and 128 mg/dL and 137 mg/dL and 134 mg/dL and 97 mg/dL and 94 mg/dL, the “Plasma Insulin” value [10] was 4.859 ng/ml and 8.657 ng/ml and 36.643* ng/ml and 4.529 ng/ml and 12.495 ng/ml and 4.309 ng/ml and 7.23 ng/ml and the “Plasma Insulin” value (WT mice, Time 40, individual animals) was 1.713 ng/ml and 4.072 ng/ml and 12.598* ng/ml and 2.583 ng/ml and 4.314 ng/ml and 1.11 ng/ml and 3.089 ng/ml. For the same compound, the “Blood Glucose” value [11] was 92 mg/dL and 102 mg/dL and 81 mg/dL and 87 mg/dL and 72 mg/dL and 96 mg/dL and 104 mg/dL, the “Plasma Insulin” value [11] was 1.617 ng/ml and 3.058 ng/ml and 8.765* ng/ml and 1.2 ng/ml and 2.106 ng/ml and 0.602 ng/ml and 3.057 ng/ml and the “Blood Glucose” value (WT mice, Time 120, individual animals) was 76 mg/dl and 96 mg/dl (2×) and 126 mg/dl and 113 mg/dl and 92 mg/dl and 93 mg/dl. For the same compound, the “Blood Glucose” value [12] was 175 mg/dL and 176 mg/dL and 194 mg/dL and 178 mg/dL and 190 mg/dL and 196 mg/dL and 226 mg/dL, the “Plasma Insulin” value [12] was 0.973 ng/ml (2×) and 2.15 ng/ml and 4.52* ng/ml and 0.764 ng/ml and 1.183 ng/ml and 1.616 ng/ml and the “Blood Glucose” value (WT mice, Time -90, individual animals) was 168 mg/dL and 146 mg/dL and 183 mg/dL and 161 mg/dL and 151 mg/dL and 156 mg/dL and 176 mg/dL. For the same compound, the “Blood Glucose Net AUC” value (WT mice) was -13948 and -15303 and -14628 and -14263 and -12238 and -14078 and -14253.

From paper PMC5650142, “GPR40 partial agonists and AgoPAMs: Differentiating effects on glucose and hormonal secretions in the rodent” (PLoS ONE, 2017)
